Laboratory results: publication PMC11603058 (Scientific Reports, 2024)
Peptide text beside a SMILES is read from it. * marks the point of attachment. Cbz = O=C(OCc1ccccc1)*; CH2F = FC*

Tests used:
MIA PaCa-2 cells [1] = assay: Viability of AJO14-treated cells in presence of cell death inhibitors; format: cell-based, human; conditions: MIA PaCa-2, 24 h; Z-VAD-FMK (20 µM), Nec-1 (40 µM), or Olaparib (25 μM)
MIA PaCa-2 cells [2] = assay: Oxygen consumption rate, Seahorse XF; format: cell-based, human; conditions: MIA PaCa-2, 24 h, AJO14 (10 μM) with increasing concentrations of Olaparib
hERG channel = hERG channel (Homo sapiens, UniProt Q12809); assay: Predictor hERG Fluorescence Polarization assay; format: binding; conditions: read-out: hERG channel inhibition (IC50), 0.1-80 μM
Sequence of hERG channel (Q12809 whole entry): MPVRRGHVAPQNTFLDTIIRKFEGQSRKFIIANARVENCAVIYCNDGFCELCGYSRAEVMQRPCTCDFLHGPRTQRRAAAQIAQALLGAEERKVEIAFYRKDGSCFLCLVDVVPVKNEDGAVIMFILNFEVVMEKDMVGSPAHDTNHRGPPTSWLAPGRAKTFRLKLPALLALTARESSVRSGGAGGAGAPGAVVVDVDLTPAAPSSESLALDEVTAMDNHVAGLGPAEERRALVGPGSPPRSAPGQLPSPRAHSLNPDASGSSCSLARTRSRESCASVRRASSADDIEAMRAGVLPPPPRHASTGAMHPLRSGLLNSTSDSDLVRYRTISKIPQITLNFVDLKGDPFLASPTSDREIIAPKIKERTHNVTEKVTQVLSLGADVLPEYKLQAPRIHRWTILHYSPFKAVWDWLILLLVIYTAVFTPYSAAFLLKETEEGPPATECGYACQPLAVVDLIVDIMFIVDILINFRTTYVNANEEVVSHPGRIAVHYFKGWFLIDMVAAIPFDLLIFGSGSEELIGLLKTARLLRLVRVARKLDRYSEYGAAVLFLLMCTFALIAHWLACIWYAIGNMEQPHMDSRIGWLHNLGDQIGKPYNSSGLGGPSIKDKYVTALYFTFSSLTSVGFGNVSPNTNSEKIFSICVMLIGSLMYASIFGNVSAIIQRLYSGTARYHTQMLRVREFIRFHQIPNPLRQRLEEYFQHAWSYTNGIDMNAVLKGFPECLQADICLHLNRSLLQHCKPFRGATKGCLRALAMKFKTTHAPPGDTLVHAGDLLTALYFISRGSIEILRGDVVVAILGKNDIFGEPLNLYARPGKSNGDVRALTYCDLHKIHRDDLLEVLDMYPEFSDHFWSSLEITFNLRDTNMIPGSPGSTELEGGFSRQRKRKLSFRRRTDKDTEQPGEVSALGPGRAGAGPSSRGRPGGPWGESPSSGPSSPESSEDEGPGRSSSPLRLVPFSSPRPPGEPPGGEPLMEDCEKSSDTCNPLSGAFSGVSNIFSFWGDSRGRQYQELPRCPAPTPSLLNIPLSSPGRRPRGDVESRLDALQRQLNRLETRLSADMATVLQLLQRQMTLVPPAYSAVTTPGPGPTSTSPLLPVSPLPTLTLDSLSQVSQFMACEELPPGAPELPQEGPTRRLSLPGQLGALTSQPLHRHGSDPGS

| SMILES | effect of pretreatment on cell viability of cells treated with AJO14 (MIA PaCa-2 cells [1]) | effect on mitochondrial metabolism failure (OCR) caused by AJO14 (MIA PaCa-2 cells [2]) | IC50 (hERG channel) |
| --- | --- | --- | --- |
| CN1C(=O)C(Cc2c[nH]c3ccccc23)NC1=S (centres unmarked) [Necrostatin] | partially improved the cell viability |  |  |
| O=C(c1cc(Cc2n[nH]c(=O)c3ccccc23)ccc1F)N1CCN(C(=O)C2CC2)CC1 [Olaparib] | partially improved the cell viability | could reverse the strong mitochondrial metabolism failure caused by AJO14 |  |
| COC(=O)C[C@H](NC(=O)[C@H](C)NC(=O)[C@@H](NC(=O)OCc1ccccc1)C(C)C)C(=O)CF [Z-VAD-FMK] (Cbz-Val-Ala-Asp(OMe)-CH2F) | partially improved the cell viability |  |  |
| CN(C)CCN1CCN(CCCN2c3ccccc3Sc3ccc(C(F)(F)F)cc32)CC1 [ZZW-115] |  |  | 2000 nM |
